In patent publication US20230391841A1, “MACROCYCLIC PEPTIDES” (Herantis Pharma OYJ, priority 2019, published 2023):
Bridge positions count the residues as written; N and C are the ends. Peptide text beside a SMILES is read from it.

Key:
[1] = In vitro metabolic stability in rat plasma; type: in vitro ADME; details: 1 μM, 37° C., up to 120 min
Description: The linear and macrocyclic compounds 1-14 and 23-26 (SEQ ID NOs: 1-14 and 23-26) were incubated in concentration 1 μM with rat plasma (Sprague-Dawley, male; 400 μl) for different time points (0, 20, 40, 60 or 120 min) at 37° C. The incubation was terminated by acetonitrile. The collected samples were centrifuged for 20 min at 2272×g and analyzed. io Stock solutions were prepared using 50% DMSO, and the compounds were spiked 1/100 to incubation to have final DMSO content of 0.5%. The samples were analyzed by UHPLC/PDA with high resolution mass spectrometry (QE-Orbitrap-MS on DDI mode) to monitor disappearance of the compound. Enalapril 1 μM was used as a disappearance rate control. For analysis of compounds 9, 10, 13 and 14 stock solutions were prepared with PBS, and samples were analyzed by UHPLC-ToF mass spectrometry. The analytical method was optimized by using the parent compounds for optimum chromatographic properties (peak shape and retention) and mass spectrometric ionization. The ion chromatograms were extracted from the total ion chromatograms using calculated monoisotopic accurate masses with 5 mDa window. Disappearance was based on LC/MS peak areas, marking 0 min as 100%.
The first-order rate constants k (min-1) of the metabolism were obtained from the slope of time versus logarithm (% of remaining compound) plot using Excel software. The in vitro half-life (t1/2) of study compound is defined as: t1/2=In2/k. Calculated half-life is based on compound disappearance from rat plasma.

[2] = In vitro metabolic stability in human plasma; type: in vitro ADME; details: 1 μM, 37° C., up to 120 min
Description: s Metabolic stability studied using human plasma over the time period of 120 min, with initial test concentration of 1 μM. Samples were analyzed using LC/QE-orbitrap-MS. Calculated half-life is based on compound disappearance in human plasma.
The linear or macrocyclic compounds 1-8, 11-14 and 23-24 (SEQ ID NOs: 1-8, 11-14 and 23-26) were incubated in concentration 1 μM with human plasma (mixed gender, 400 μl) for different time points (0, 20, 40, 60 or 120 min) at 37° C. The incubation was terminated by acetonitrile. The collected samples were centrifuged for 20 min at 2272×g and analyzed. The samples were analyzed by UHPLC/PDA with high resolution mass spectrometry (QE-Orbitrap-MS on DDI mode) to monitor disappearance of the compound. Propanthelin […] bromide 1 μM was used as a disappearance rate control. The analytical method was optimized by using the parent compounds for optimum chromatographic properties (peak shape and retention) and mass spectrometric ionization. The Ion chromatograms were extracted from the total ion chromatograms using calculated monoisotopic accurate masses with 5 mDa window. Disappearance was based on LC/MS peak areas, marking 0 min as 100%. The first-order rate constants k (min-1) of the metabolism were obtained from the slope of time versus logarithm (% of remaining compound) plot using Excel software.

[3] = In vivo pharmacokinetics after intravenous administration to rats; parameters: species or system male Sprague-Dawley rats; details: for AUC(0-inf) / MRT / Vd / half-life / clearance: rat, 5 mg/kg intravenous bolus, male Sprague-Dawley rats; for AUC(0-inf) / MRT / Vd / half-life: in vivo; for clearance: plasma, read-out: CI
Description: The clearance and elimination of peptides can be mediated by multiple processes in vivo, including metabolism and renal elimination.
Test compounds were intravenously (i.v.) administered to male Spraque-Dawley rats (about is six weeks old, n=3 per compound) at 5 mg/kg. Blood samples were collected from jugular vein through implanted in-dwelling catheters (250 pl blood) into labelled polypropylene tubes containing anticoagulant (heparin) at 2 min, 5 min,15 min, 30 min, 1 h, 2 h and 4 h after compound administration and held on wet ice for a maximum of 30 minutes. The blood samples were centrifuged for plasma separation (4 °C, 21100 G, 5 min). Tolbutamide 500ng/ml with 10% TFA in acetonitrile or in MeCN was used as an internal standard solution.
The standard samples were prepared into rat plasma by spiking the matrix into concentrations 2-10 000 ng/ml of the analyte, respectively, and otherwise treated as the samples. To 50 pl aliquots of sample plasma was added 200 pl of internal standard. Samples were mixed (150 rpm, 15 min) and centrifugated (3000 rpm, 15min). The analytical method was optimized for reaction monitoring chromatographic (peak shape & retention) shifts and mass spectrometric properties (ionization efficiency, MS/MS detection). Supernatants were analyzed by UHPLC-TOF mass spectrometry using electrospray ionization.

[4] = system: dopaminergic TH-positive neurons injured with MPP+; assay: Dependence of neuroprotective activity on UPR pathway signaling (MPP+ injured mesencephalic neurons with PERK or IRE1alpha inhibitor); type: cell-based, rat; details: for neuroprotective effect in the presence of PERK inhibitor GSK2606414: GSK2606414 added 1 h before test compound; for neuroprotective effect in the presence of IRE1alpha inhibitor KIRA6: KIRA6 added 1 h before test compound
Description: CDNF and MANF protect cells from ER stress-induced cell dysfunction or cell death, such as apoptosis by modulating cellular responses to ER stress. […] Binding of compounds to GRP78-NBD was assessed in a cell-free binding assay using purified recombinant GRP78-NBD and synthesized peptides. As GRP78 also serves as a critical ligand of the three receptors of the unfolded protein response (UPR) pathway, […], PERK and ATF6, the dependency of the compounds' neuroprotective effects on UPR signaling was also tested.
The neuronal cell culture, MPP+ intoxication, immunostaining and analysis of neuroprotective effects of compounds were performed as in Example 1. PERK inhibitor GSK2606414 (2 µM , Sigma) or IRE1alpha inhibitor KIRA6 (2 µM , Sigma) were added to the culture 1 h before addition of the test compounds.

[5] = target: GRP78-NBD; assay: Binding to GRP78-NBD Kd (μM)
Description: Table printed on a drawing sheet, FIG. 5B
Head of the field: Binding to GRP78-NBD Kd (μM)
GRP78-NBD is shown in a translucent surface model along with its cartoon trace. The Cys-Cys bond in compound 12 (SEQ ID NO: 12) is shown in sticks.
The binding affinities are obtained by a microscale thermophoresis-based cell-free assay.
GSK2606414 was used to inhibit PERK signaling and KIRA6 to inhibit IRE1alpha signaling. * p<0.05, ** p<0.01, *** p<0.001, **** p<0.0001 one-way ANOVA is test with post-hoc Fisher's LSD test for pairwise comparison vs MPP+ negative control. # p<0.05, ## p<0.01, ### p<0.001, #### p<0.0001 one-way ANOVA test with post-hoc Fisher's LSD test for pairwise comparison between effect of compound alone and its combination with UPR signal inhibitor.
Where the first naming reader finds the target: head: Binding to GRP78-NBD Kd (μM)

Structure (SMILES) | stability in rat plasma as compared to linear counterpart [1] | stability in human plasma as compared to linear counterpart [2] | AUC(0-inf) [3] [ng·h/mL] | MRT [3] [min] | Vd [3] [L/kg] | half-life [3] [min] | clearance [3] [mL/min/kg] | neuroprotective effect in the presence of PERK inhibitor GSK2606414 [4] | neuroprotective effect in the presence of IRE1alpha inhibitor KIRA6 [4] | Kd [5] [µM] | plasma half-life, volume of distribution and mean residence time ([3]; intravenous administration to rats) | blood retention behavior ([3]; intravenous, 5 mg/kg, rats) | time detected in the plasma after administration ([3]; intravenous, 5 mg/kg, rats) [h]
CC[C@H](C)[C@@H]1NC(=O)[C@H](CCC(N)=O)NC(=O)[C@H](CCCCN)NC(=O)[C@H](CC(C)C)NC(=O)[C@H](CCC(=O)O)NC(=O)[C@H](C)NC(=O)[C@H](C(C)C)NC(=O)[C@H](CCCNC(=N)N)NC(=O)[C@H](CCSC)NC(=O)[C@H](CCCCN)NC(=O)[C@H](CCCNC(=N)N)NC(=O)[C@H](CC(C)C)NC(=O)[C@H](CC(=O)O)NC(=O)[C@H](C(C)C)NC(=O)[C@H](CCC(=O)O)NC(=O)[C@H](C)NC(=O)[C@@H]2CSSC[C@H](NC(=O)[C@H](CCC(=O)O)NC(=O)[C@H](CCC(=O)O)NC(=O)CNC(=O)[C@H](Cc3c[nH]c4ccccc34)NC(=O)[C@H](CO)NC(=O)[C@H](Cc3c[nH]cn3)NC(=O)[C@H](CC(C)C)NC1=O)C(=O)N[C@@H](CCCNC(=N)N)C(=O)N[C@@H](C)C(=O)N2 [Compound 2] (cyclo(ACAEVDLRKMRVAELKQILHSWGEECR); disulfide 2-26) | improved stability | improved stability | 4440 | 1.01 | 0.02 | 3.78 | 20.6 | – | – | – | – | – | –
CC[C@H](C)[C@@H]1NC(=O)[C@H](CCCCN)NC(=O)[C@H](CCCCN)NC(=O)[C@H](CC(C)C)NC(=O)[C@H](CCC(=O)O)NC(=O)[C@H](CCCCN)NC(=O)[C@H](C(C)C)NC(=O)[C@H](CCCNC(=N)N)NC(=O)[C@H](CC(C)C)NC(=O)[C@H](CCCCN)NC(=O)[C@H](CCC(=O)O)NC(=O)[C@H](C)NC(=O)[C@@H]2CSSC[C@H](NC(=O)[C@H]([C@@H](C)O)NC(=O)[C@H](CCC(=O)O)NC(=O)CNC(=O)[C@H](Cc3c[nH]c4ccccc34)NC(=O)[C@H](CC(=O)O)NC(=O)[C@H](CC(=O)O)NC(=O)[C@H](CC(C)C)NC1=O)C(=O)N[C@@H](CCCCN)C(=O)NCC(=O)N2 [Compound 8] (cyclo(AEKLRVKELKKILDDWGETCKGC); disulfide 20-23) | improved stability | – | – | – | – | – | – | – | – | – | – | – | –
CC[C@H](C)[C@@H]1NC(=O)[C@H](CO)NC(=O)[C@H](CCCCN)NC(=O)[C@H](CCC(=O)O)NC(=O)[C@H](C)NC(=O)[C@@H]2CSSC[C@H](NC(=O)[C@H]([C@@H](C)O)NC(=O)[C@H](CCC(=O)O)NC(=O)CNC(=O)[C@H](Cc3c[nH]c4ccccc34)NC(=O)[C@H](CC(=O)O)NC(=O)[C@H](CC(=O)O)NC(=O)[C@H](CC(C)C)NC1=O)C(=O)N[C@@H](CCCCN)C(=O)NCC(=O)N2 [Compound 10, KSILDDWGETCKGCAE] (cyclo(AEKSILDDWGETCKGC); disulfide 13-16) | improved stability | – | 2140 | 1.2 | 0.05 | 3.6 | 39.9 | abolished | abolished | – | – | – | –
C[C@@H]1NC(=O)[C@@H]2CSSC[C@H](NC(=O)[C@H](CCC(=O)O)NC(=O)[C@H](CCC(=O)O)NC(=O)CNC(=O)[C@H](Cc3c[nH]c4ccccc34)NC(=O)[C@H]([C@@H](C)O)NC(=O)[C@H](CCCCN)NC(=O)[C@H](CCC(=O)O)NC1=O)C(=O)N[C@@H](CCCNC(=N)N)C(=O)N[C@@H](C)C(=O)N2 [Compound 12, WGEECRACAEKT] (cyclo(ACAEKTWGEECR); disulfide 2-11) | – | – | – | – | – | – | – | – | – | 1.65 | – | – | –
C[C@@H]1NC(=O)[C@@H]2CSSC[C@H](NC(=O)[C@H]([C@@H](C)O)NC(=O)[C@H](CCC(=O)O)NC(=O)CNC(=O)[C@H](Cc3c[nH]c4ccccc34)NC(=O)[C@H](CO)NC(=O)[C@H](CCCCN)NC(=O)[C@H](CCC(=O)O)NC1=O)C(=O)N[C@@H](CCCCN)C(=O)NCC(=O)N2 [Compound 14, WGETCKGCAEKS] (cyclo(AEKSWGETCKGC); disulfide 9-12) | improved stability | – | 4970 | 7.05 | 0.12 | 15.8 | 16.8 | abolished | abolished | 1.5 | improved | improved blood retention behavior | ≥ 2
C[C@@H]1NC(=O)[C@@H]2CSSC[C@H](NC(=O)[C@H]([C@@H](C)O)NC(=O)[C@H](CCC(=O)O)NC(=O)CNC(=O)[C@H](Cc3c[nH]c4ccccc34)NC(=O)[C@H](CO)NC(=O)[C@H](CCCCN)NC(=O)[C@H](CCC(=O)O)NC1=O)C(=O)N[C@@H](CCCCN)C(=O)NCC(=O)NCC(=O)N2 [Compound 26, WGETCKGGCAEKS] (cyclo(AEKSWGETCKGGC); disulfide 9-13) | improved stability | improved stability | – | – | – | – | – | – | – | – | – | – | –
